Laboratory results: US20230037188A1, “TASTEFUL NATURAL SWEETENER AND FLAVOR” (EPC Natural Products Co., Ltd., priority 2018, published 2023)
“Also recorded” adds a separate entry of the source.

Tests used:
[1] = Assay to test DPPH radical-scavenging activity; conditions: combinations of amino acids and Reb-A, 100° C., pH 7.8; iron-III reduction and radical scavenging (FIGS. 49, 50)
Procedure: 1 mg 1,1-Diphenyl-2-picrylhydrazyl radical (DPPH)/ml ethanol, dilution to assay concentration were prepared in ethanol (40 μg/mL); Calibration samples were prepared with Ascorbic acid in a concentration of 0-10 μg/mL; as a negative control sample, water was used.
Samples in aqueous solution were used as such or diluted with water.
A 0.1 ml sample (or calibration standard) was mixed with 3.9 ml solution of DPPH° (100 μMolar) and reacted while protected from light at room temperature for 30 min. Absorbance was determined at 517 nm against ethanol.
10 mM of amino acid and/or 10 mM sugar were dissolved in 10 ml 0.1 mM KH2PO4-buffer, pH=7.8.
The samples were kept at 100° C. in sealed glass vials (Pyrex 15 ml with screw caps) for 0 (before reaction), 2.5 or 5.0 hours. Thereafter the samples were transferred to an ice water bath and cooled down to room temperature. These samples were diluted 1:10 and used for the test assay for anti-oxidant potential.

[2] = Kinetics of reaction (degradation of Phe with Reb-A, Gluc, Xyl, Suc) in dependence of pH-conditions, HPLC/MS; type: physicochemical; conditions: for % formation from degraded Reb-A: reaction of Phe and Reb-A
Procedure: Quantitative evaluation was performed using external standardization.

[3] = Blind descriptive sensory evaluation by trained tasters of differently prepared Stevia-derived MRPs in beverages and ketchup; type: in vivo; conditions: added before heating to xylose, phenylalanine and SGA; 150 μl sample per 100 ml
Procedure: Each sample was added at a concentration of 1500 ppm to freshly prepared lemon juice (squeezed lemons diluted 1:5 with tap water) containing 4% sugar.
Each sample was added at a concentration of 1000 ppm to Felix Ketchup no added sugar (31.12.2019 L8352, 11:48).
Before tasting the tasters discussed the upcoming series of samples and tasted samples with the predetermined attributes (sweetness) with varying intensities to find a common description. Four trained tasters blind taste tested independently all samples of a series. They were allowed to re-taste and prepared notes for sensory attributes perceived including the relative intensity.
In the last step the attributes noted were discussed openly to find an acceptable description. In case that more than 1 taster disagreed with the description, the tasting was repeated.
Before tasting the tasters discussed the upcoming series of samples and tasted samples with the predetermined attributes with varying intensities to find commonality for the description. Four trained tasters blind taste tested independently all samples of a series. They were allowed to re-taste and made notes for the sensory attributes perceived including the relative intensity.
In the last step the attributes noted were discussed openly to find an agreeable description. In case that more than 1 taster disagreed with thedescription, the tasting was repeated. […]

[4] = Sensory evaluation of combinations of EPCalin (Thaumatin), GSGs and SGs and NHDC in water; type: in vivo; conditions: 4.5 ppm Thaumatin (10 ppm EPCalin) and/or 50 ppm GSGs and SGs, NHDC 1-5 ppm
Procedure: 4.5 ppm Thaumatin (equivalent to 10 ppm EPCalin) were dissolved in water. Increasing amounts of NHDC (1-5 ppm) were added to the solution and the sensory properties were evaluated.
50 ppm (GSGs and SGs) were dissolved in water. Increasing amounts of NHDC (1-5 ppm) were added to the solution and the sensory properties were evaluated.
50 ppm (GSGs and SGs) and 4.5 ppm Thaumatin (equivalent to 10 ppm EPCalin) were dissolved in water. Increasing amounts of NHDC (1-5 ppm) were added to the solution and the sensory properties were evaluated.
Sweetness intensity was rated on 5-point scale

Compound: C=C1C[C@@]23CC[C@H]4[C@@](C)(CCC[C@@]4(C)C(=O)O[C@@H]4O[C@H](CO)[C@@H](O)[C@H](O)[C@H]4O)[C@@H]2CC[C@]1(O[C@@H]1O[C@H](CO)[C@@H](O)[C@H](O[C@@H]2O[C@H](CO)[C@@H](O)[C@H](O)[C@H]2O)[C@H]1O[C@@H]1O[C@H](CO)[C@@H](O)[C@H](O)[C@H]1O)C3 [Reb-A, Rebaudioside A]
- anti-oxidant properties [1]: substantial anti-oxidant properties

Compound: OC[C@H]1OC(O)[C@H](O)[C@@H](O)[C@@H]1O (stereo partly shown) [Glu]
- % degradation ([2]; reaction of Phe and Gluc, pH = 7.0, 1.0 h, 120° C.): 4.6%

Compound: C=C1C[C@@]23CC[C@H]4[C@@](C)(CCC[C@@]4(C)C(=O)O)[C@@H]2CC[C@]1(O[C@@H]1O[C@H](CO)[C@@H](O)[C@H](O[C@@H]2O[C@H](CO)[C@@H](O)[C@H](O)[C@H]2O)[C@H]1O[C@@H]1O[C@H](CO)[C@@H](O)[C@H](O)[C@H]1O)C3 [Reb-B]
- % formation from degraded Reb-A ([2]; pH = 5.5): 23.1%
- % formation from degraded Reb-A ([2]; pH = 7.0): 22.7%
- % formation from degraded Reb-A ([2]; pH = 8.5): 19.1%

Compound: COc1ccc(CCC(=O)c2c(O)cc(O[C@@H]3O[C@H](CO)[C@@H](O)[C@H](O)[C@H]3O[C@@H]3O[C@@H](C)[C@H](O)[C@@H](O)[C@H]3O)cc2O)cc1O [NHDC, Neohesperidin dihydrochalcone]
- taste profile in Redbull sugar free [3]: improved the mouth-feel and harmony of taste impression yielding a substantially improved taste profile
- sweetness, onset, mouth-feel and lingering in words [4]: long lasting lingering; also recorded: boosts the lingering
